In brackets after ≈: the same amount, converted by molar mass. Several values for one entry are separate records, joined by “and”; a condition that tells them apart may be missing. Identical values can stand only once.
Tests used:
Assay type in all cases: in vivo, human
[1] = system: complement alternative pathway (AP) activity; assay: SAD study: ex vivo serum AP hemolysis assay and PK-PD analysis; conditions: for time approximately 90% or greater inhibition maintained after dosing: AP hemolysis
Experimental: For human serum preparation, venous blood was collected by standard clinical procedures into a Gold Top, SST vacutainer (BD Vacutainer). After clotting at room temperature for 30 minutes or longer, the tube was centrifuged at ˜1,300×g at 4° C. for 15 minutes to separate the serum from the clot. Serum was then aliquotted into pre-chilled cryovials (50-200 μl/vial) for storage at ˜80° C. Each vial was thawed only once and used for each complement related assay, the remaining sample was discarded without further usage. For preparation of plasma, venous blood was collected into a Lavender Top, K2EDTA vacutainer and gently inverted several times to allow for complete mixing of the blood sample with the anticoagulant. The tube was placed in an ice-bath for 30 minutes and then centrifuged for 15 minutes at ˜1300×g at 4° C. to separate the plasma from the blood cells. Plasma was divided into aliquots in pre-chilled cryogenic storage tubes and stored at a ˜80° C. freezer within one hour of having collected the blood sample. For delivery, tubes containing either serum or plasma were shipped in the presence of dry ice without additional freeze-thaw cycle.
Ex vivo serum AP hemolysis assays were conducted in 96-well microtiter plates divided into two parts, one for hemolysis and the other for serum background color subtraction. Briefly, a suspension of rabbit red blood cells (RBCs) was centrifuged at 800×g at 4° C. for 3 minutes and the supernatant was removed to get rid of the RBC debris. The RBC cell pellet was re-suspended gently with pre-chilled gelatin veronal buffer (GVB0) containing 10 mM MgEGTA to a density of 5×10^8 cells/mL. Other controls including buffer, spontaneous rabbit RBC lysis, 100% RBC lysis (in water), and normal serum control were set up alongside the test samples as well. Serum was placed in a 37° C. water-bath until mostly thawed and immediately transferred to ice bath. 20% serum was prepared with GVB0-MgEGTA buffer and kept at ice bath before testing. Reactions were carried out in a 96 well plate by mixing 50 μl of 20% serum with equal volume of GVB0-MgEGTA buffer and then quickly adding 20 μl of RBC suspension. The plate was shaken on a microtiter plate shaker for 5 seconds and then incubated at 37° C. for 30 minutes. Halfway during the incubation period, the plate was shaken for another 5 seconds as described above. At the end of the incubation, the plate was centrifuged at 800×g at 4° C. for 3 minutes to pellet the un-lysed rabbit RBCs. 80 μl of supernatant was removed carefully from all wells and transferred to a clear flat-bottom microtiter plate for the measurement of optical absorbance at 405 nm (A405) in a Molecular Devices Spectramax Plus plate reader. AP hemolysis in each well was calculated relative to the activity of the NHS reference sample formulas as follows: Hemolysis (%)=((Hm−Bk)−(Sp−Bf))/((NH−BkNH)−(Sp−Bf))×100%
where Hm=A405 in the hemolysis well, Bk=A405 in the corresponding background well, Sp=mean A405 in the spontaneous hemolysis wells, Bf=mean A405 in the buffer alone wells, NH=mean A405 in the reference NHS wells, and BkNH=mean A405 in the corresponding background wells.
The PK-PD relationship was evaluated using time-matched plasma Compound 1 concentrations and serum AP inhibition values by non-linear regression with GraphPad Prism (La Jolla, CA) using the following two models: • 1. […] Pharmacodynamic and Pharmacokinetic Results AP Activity Measured with AP Hemolysis […]

[2] = system: Bb fragment of complement Factor B; assay: MAD study single-dose cohorts: plasma Bb concentration by ELISA; conditions: 240 mg single dose
Experimental: FIG. 15 is a graphical display of mean plasma Bb concentration as determined by ELISA assay for all subjects in the first 24 hours after administration of Compound 1 at single doses of 240 mg in fasted subjects (n=6), 120 mg in fed subjects (n=6) and placebo (n=4). Horizontal dashed gridlines represent: upper limit of normal (1.42 μg/ml); lower limit of normal (0.48 μg/ml); and lower limit of quantitation (LLOQ) (0.33 μg/ml). The x-axis is Time in hours and the y-axis is Mean Plasma Bb Concentration measured in μg/mL.
Serum AP hemolysis activity was assessed in samples collected at predefined time points from Day 1 (pre-dose) through Day 7. Ex vivo serum AP inhibition was more prolonged in the 240 mg dose group than previously observed in the SAD study at doses up to 120 mg (FIG. 14). […] Mean pre-dose (Day 1, 0 h) activity among active subjects was 123.02% (240 mg) and 110.43% (120 mg). Activity was reduced to 10% or lower from 1.5 h through 16 h in the 240 mg group, and from 2 h through 6 h in the 120 mg group. Activity was recovered to nearly pre-dose levels by 48 hours. AP activity in placebo subjects in contrast varied little from the pre-dose value of 109.52%, with a minimum value among all time points of 81.46%. […]

[3] = system: fD, C3, C4, classical pathway (CP) function; assay: Other complement assays (fD, C3, C4 serum concentration, serum total CP function)
Experimental: […] were dosed and evaluated in 4 dose groups with ten subjects receiving placebo (Table 1). The first dose group had 6 active and 6 placebo subjects; subsequent groups had 6 active and 2 placebo subjects each. Each group was followed for 28 days after dosing. All subjects were monitored for safety through the last scheduled visit at Day 28. Blood and urine samples were collected at predefined time points from Days 1 to 4 to determine plasma and urine concentrations of Compound 1 and from Days 1 to 7 to determine complement related activities. Results of serum AP activity measured by AP Wieslab assay as well as plasma Bb, factor D level and several other PD biomarkers were determined.
Serum AP hemolysis activity was assessed in samples collected from all cohorts at predefined time points from Day 1 (pre-dose) through Day 21. Intense sampling was obtained on Day 1 (0 h to 12 h), Day 7 (0 h to 12 h), and Day 14 (0 h to 16 h); all other serum samples were collected at 0 h (morning PK troughs) on the indicated days. […] Serum complement AP activity measured ex vivo by the AP Wieslab assay, serum total complement classical pathway (CP) activity, plasma complement Bb concentrations, and serum FD, C3, and C4 concentrations were also measured at predefined time points.

Structure (SMILES): CC(=O)c1nn(CC(=O)N2[C@H](C(=O)Nc3nc(Br)ccc3C)C[C@@]3(C)C[C@@H]23)c2ccc(-c3cnc(C)nc3)cc12 [Compound 1, (1R,3S,5R)-2-(2-(3-acetyl-5-(2-methylpyrimidin-5-yl)-1H-indazol-1-yl)acetyl)-N-(6-bromo-3-methylpyridin-2-yl)-5-methyl-2-azabicyclo[3.1.0]hexane-3-carboxamide]
- time approximately 90% or greater inhibition maintained after dosing ([1]; Group 1, 40 mg single dose): at least 4 hours
- time approximately 90% or greater inhibition maintained after dosing ([1]; Groups 2 and 3, 80 and 120 mg single dose): at least 8 hours
- EC50 ([1]; Homo sapiens, simple Emax model, all SAD dose cohorts, read-out: EC50 (plasma concentration vs serum AP inhibition)): 0.0111 µg/mL (≈ 0.0184 µM)
- EC50 (plasma concentration vs serum AP inhibition) ([1]; simple Emax model, all SAD dose cohorts): ~0.01 µg/mL and 0.011 µg/mL
- inhibition of AP activity after dosing ([1]; single dose 40, 80 or 120 mg, all groups): complete inhibition
- time plasma Bb remained near its nadir post-dose [2]: at least 16 hours
- change in serum CP activity and serum factor D, C3, C4 concentrations ([3]; MAD study single-dose cohorts (240 mg fasted, 120 mg fed)): no significant changes
- change in fD, C3, C4 serum concentration and serum total CP function ([3]; SAD, single dose up to 120 mg, vs baseline and placebo): no significant changes
